This experiment has as its system P388 leukemia ip, CD2F1 mice, survival T/C. In words: NCI In Vivo Anticancer Drug Screen. Data for tumor model P388 Leukemia (intraperitoneal) in CD2F1 (CDF1) mice. Conditions: endpoint: median survival time, higher = longer survival. The procedure, abridged:
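Mice carrying the transplanted tumor received test compound or vehicle. Survival was recorded in each group, and the value is the treated-group measurement divided by that of the vehicle-treated control group.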

Setting [1] is: dose: 12.5 mg/kg/injection, schedule: Q01DX005 (ip), vehicle: saline with Tween-80.
Setting [2] is: dose: 25.0 mg/kg/injection, schedule: Q01DX005 (ip), vehicle: saline with Tween-80.
Setting [3] is: dose: 50.0 mg/kg/injection, schedule: Q01DX005 (ip), vehicle: saline with Tween-80.
[4] abbreviates: dose: 3.0 mg/kg/injection, schedule: Q01DX009 (ip), vehicle: saline.

SMILES strings stand for the structures. Where “and” joins values, the source holds several entries; their conditions need not be identical. Identical values can stand only once. Toxic doses and inconclusive results are not listed.

The values that follow come from PubChem BioAssay AID330 (DTP/NCI, 2004).

Regarding `Cc1cc(-c2c(C)[nH]n(-c3cc(C)c4cc(F)ccc4n3)c2=O)n(-c2cc(C)c3cc(F)ccc3n2)n1`, the T/C was 102 % of control (dose: 60.0 mg/kg/injection, schedule: Q01DX005 (ip), vehicle: saline with Tween-80); 101 % of control (dose: 120.0 mg/kg/injection, schedule: Q01DX005 (ip), vehicle: saline with Tween-80); 98 % of control (dose: 240.0 mg/kg/injection, schedule: Q01DX005 (ip), vehicle: saline with Tween-80).

For `O=C(N/N=C/c1cc(Cl)cc(Cl)c1O)c1ccccc1`, the T/C is 96 % of control (dose: 100.0 mg/kg/injection, schedule: Q01DX001 (ip), vehicle: saline with Tween-80); 98 % of control (dose: 200.0 mg/kg/injection, schedule: Q01DX001 (ip), vehicle: saline with Tween-80); 103 % of control (dose: 400.0 mg/kg/injection, schedule: Q01DX001 (ip), vehicle: saline with Tween-80).

On to `Oc1cccc(Nc2ccccc2)c1`, for which the T/C (dose: 50.0 mg/kg/injection, schedule: Q01DX009 (ip), vehicle: olive oil, sesame oil, peanut oil) was 108 % of control; the T/C (dose: 100.0 mg/kg/injection, schedule: Q01DX009 (ip), vehicle: olive oil, sesame oil, peanut oil) is 103 % of control; the T/C (dose: 200.0 mg/kg/injection, schedule: Q01DX009 (ip), vehicle: olive oil, sesame oil, peanut oil) was 111 % of control.

Consider `O=C(O)CSc1nc2ccc(N3C(=O)C4C5C=CC(C5)C4C3=O)cc2s1` (centres undefined), for which the T/C (dose: 50.0 mg/kg/injection, schedule: Q01DX009 (ip), vehicle: Klucel (hydroxypropylcellulose) (HPC)) was 90 % of control; the T/C (dose: 100.0 mg/kg/injection, schedule: Q01DX009 (ip), vehicle: Klucel (hydroxypropylcellulose) (HPC)) is 105 % of control; the T/C (dose: 200.0 mg/kg/injection, schedule: Q01DX009 (ip), vehicle: Klucel (hydroxypropylcellulose) (HPC)) is 99 % of control.

Take `O=CC(=C\c1cccs1)/C(C=O)=C\c1cccs1`: the T/C was 107 % of control under setting [1]; 108 % of control under setting [2]; 108 % of control and 114 % of control under setting [3]; 109 % of control (dose: 100.0 mg/kg/injection, schedule: Q01DX005 (ip), vehicle: saline with Tween-80).

Turning to `Cn1c(COc2ccc(/C=N\N/C(N)=N/N=C/c3ccc(OCc4c[n+]5ccccc5n4C)cc3)cc2)c[n+]2ccccc12`, the T/C reads like this: under setting [1], 110 % of control; under setting [2], 112 % of control.

As for `CC(C)(C)c1cc(C/C=C/c2ccccc2)c(O)c(C(C)(C)C)c1`, the T/C (dose: 2.5 mg/kg/injection, schedule: Q01DX009 (ip), vehicle: saline with Tween-80) is 90 % of control; the T/C (dose: 5.0 mg/kg/injection, schedule: Q01DX009 (ip), vehicle: saline with Tween-80) is 99 % of control; the T/C (dose: 10.0 mg/kg/injection, schedule: Q01DX009 (ip), vehicle: saline with Tween-80) was 96 % of control.

Turning to `Cc1cccc(NC(=O)N(CCCl)N=O)c1`, the T/C was 186 % of control (dose: 0.38 mg/kg/injection, schedule: Q04DX003 (ip), vehicle: saline with Tween-80); 218 % of control (dose: 0.75 mg/kg/injection, schedule: Q04DX003 (ip), vehicle: saline with Tween-80); 159 % of control (dose: 1.5 mg/kg/injection, schedule: Q01DX009 (ip), vehicle: saline); 272 % of control (dose: 1.5 mg/kg/injection, schedule: Q04DX003 (ip), vehicle: saline with Tween-80); 206 % of control under setting [4]; 254 % of control (dose: 3.13 mg/kg/injection, schedule: Q01DX009 (ip), vehicle: saline with Tween-80). In addition, the T/C (dose: 3.13 mg/kg/injection, schedule: Q04DX003 (ip), vehicle: saline) is 190 % of control; the T/C (dose: 6.25 mg/kg/injection, schedule: Q01DX009 (ip), vehicle: saline with Tween-80) was 95 % of control; the T/C (dose: 6.25 mg/kg/injection, schedule: Q04DX003 (ip), vehicle: saline with Tween-80) is 200 % of control; the T/C (dose: 6.25 mg/kg/injection, schedule: Q04DX003 (ip), vehicle: saline) was 209 % of control; the T/C (dose: 8.25 mg/kg/injection, schedule: Q04DX003 (ip), vehicle: saline with Tween-80) is 276 % of control; the T/C (dose: 12.5 mg/kg/injection, schedule: Q04DX003 (ip), vehicle: saline with Tween-80) was 272 % of control and 285 % of control. Moreover, the T/C (dose: 12.5 mg/kg/injection, schedule: Q04DX003 (ip), vehicle: saline) was 118 % of control.

Consider `Cc1csc2nc(-c3cccs3)nn12`, for which the T/C is, setting by setting: (dose: 30.0 mg/kg/injection, schedule: Q01DX005 (ip), vehicle: Klucel (hydroxypropylcellulose) (HPC)) 103 % of control; (dose: 60.0 mg/kg/injection, schedule: Q01DX005 (ip), vehicle: Klucel (hydroxypropylcellulose) (HPC)) 98 % of control; (dose: 120.0 mg/kg/injection, schedule: Q01DX005 (ip), vehicle: Klucel (hydroxypropylcellulose) (HPC)) 103 % of control; (dose: 240.0 mg/kg/injection, schedule: Q01DX005 (ip), vehicle: Klucel (hydroxypropylcellulose) (HPC)) 105 % of control.

On to `COc1ccc(S(=O)(=O)c2cnc(N)nc2N)cc1`, for which the T/C by setting is: (dose: 100.0 mg/kg/injection, schedule: Q01DX001 (ip), vehicle: saline) 97 % of control; (dose: 200.0 mg/kg/injection, schedule: Q01DX001 (ip), vehicle: saline) 93 % of control; (dose: 400.0 mg/kg/injection, schedule: Q01DX001 (ip), vehicle: saline) 90 % of control.

`O=P(c1ccccc1)(N1CC1)N1CC1`: the T/C is 118 % of control (dose: 15.0 mg/kg/injection, schedule: Q04DX003 (ip), vehicle: saline) and 122 % of control (dose: 30.0 mg/kg/injection, schedule: Q04DX003 (ip), vehicle: saline).

`C/C(=C1\C(=O)Oc2c(ccc3ccccc23)C1=O)c1ccc2ccccc2c1O`: the T/C reads like this: under setting [1], 99 % of control; under setting [2], 99 % of control; under setting [3], 86 % of control and 97 % of control.

For `N=C(N)c1cn(C2OC(CO)C(O)C2O)c2ncnc(N)c12` (centres undefined), the T/C (dose: 1.33 mg/kg/injection, schedule: Q01DX009 (ip), vehicle: saline) is 178 % of control; the T/C (dose: 2.0 mg/kg/injection, schedule: Q01DX009 (ip), vehicle: saline) is 187 % of control; the T/C under setting [4] is 183 % of control; the T/C (dose: 4.5 mg/kg/injection, schedule: Q01DX009 (ip), vehicle: saline) was 192 % of control; the T/C (dose: 7.5 mg/kg/injection, schedule: Q04DX003 (ip), vehicle: saline) is 163 % of control.

As for `COc1ccc(Cl)cc1C`, the T/C is, setting by setting: (dose: 12.5 mg/kg/injection, schedule: Q01DX009 (ip), vehicle: distilled water + Tween-80) 99 % of control; (dose: 25.0 mg/kg/injection, schedule: Q01DX009 (ip), vehicle: distilled water + Tween-80) 97 % of control; (dose: 50.0 mg/kg/injection, schedule: Q01DX009 (ip), vehicle: distilled water + Tween-80) 98 % of control; (dose: 100.0 mg/kg/injection, schedule: Q01DX009 (ip), vehicle: distilled water + Tween-80) 98 % of control; (dose: 200.0 mg/kg/injection, schedule: Q01DX009 (ip), vehicle: distilled water + Tween-80) 108 % of control; (dose: 400.0 mg/kg/injection, schedule: Q01DX009 (ip), vehicle: distilled water + Tween-80) 116 % of control.

For the compound `COc1ncnc2c1nnn2C1OC(CO)C(O)C1O` (centres undefined), the T/C (dose: 25.0 mg/kg/injection, schedule: Q04DX003 (ip), vehicle: saline) is 96 % of control; the T/C (dose: 50.0 mg/kg/injection, schedule: Q04DX003 (ip), vehicle: saline) was 105 % of control; the T/C (dose: 100.0 mg/kg/injection, schedule: Q04DX003 (ip), vehicle: saline) is 100 % of control; the T/C (dose: 200.0 mg/kg/injection, schedule: Q04DX003 (ip), vehicle: saline) is 109 % of control.

For the compound `Cc1ccc(N=C2c3ccccc3-c3ccc(NC(=O)c4ccccc4)cc32)cc1`, the T/C is 93 % of control (dose: 3.12 mg/kg/injection, schedule: Q01DX005 (ip), vehicle: saline with Tween-80); 93 % of control (dose: 6.25 mg/kg/injection, schedule: Q01DX005 (ip), vehicle: saline with Tween-80); 86 % of control under setting [1]; 86 % of control under setting [3].

Regarding `Cc1ccc(S(=O)(=O)N/N=C2/C=CC3(CCCC3)CC2)cc1`, the T/C (dose: 50.0 mg/kg/injection, schedule: Q01DX001 (ip), vehicle: Klucel (hydroxypropylcellulose) (HPC)) is 88 % of control; the T/C (dose: 100.0 mg/kg/injection, schedule: Q01DX001 (ip), vehicle: Klucel (hydroxypropylcellulose) (HPC)) was 91 % of control; the T/C (dose: 200.0 mg/kg/injection, schedule: Q01DX001 (ip), vehicle: Klucel (hydroxypropylcellulose) (HPC)) was 88 % of control and 90 % of control; the T/C (dose: 400.0 mg/kg/injection, schedule: Q01DX001 (ip), vehicle: Klucel (hydroxypropylcellulose) (HPC)) is 89 % of control.
